This passage reports IC50 results from patent publication US11084800B2 (Achillion Pharmaceuticals, Inc., priority 2017, dated 2021).

pIC50: −log10 of the molar value. Read-outs that look alike come from different tables or passages of the source.

The target in this test is Human Factor D (Homo sapiens (Human), UniProt P00746). Briefly: Human Factor D Assay. Format: biochemical. The essentials: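 Thioester substrate Z-L-Lys-SBz (100 μM) with Ellman's reagent DTNB (100 μM) reports activity of 80 nM human serum-derived enzyme, kinetically at 405 nm over 30 min. Compound preincubated 5 min, room temperature, pH 7.5 Tris/1 M NaCl; IC50 by nonlinear fit of rates.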

The mark [1] stands for this setting: Factor D inhibition, assay of Example 10, read-out: IC5 (Stars).
[2] abbreviates: Table 8, Factor D 80 nM, substrate Z-L-Lys-SBz, read-out: IC50.

Human Factor D, sequence (P00746 26-253): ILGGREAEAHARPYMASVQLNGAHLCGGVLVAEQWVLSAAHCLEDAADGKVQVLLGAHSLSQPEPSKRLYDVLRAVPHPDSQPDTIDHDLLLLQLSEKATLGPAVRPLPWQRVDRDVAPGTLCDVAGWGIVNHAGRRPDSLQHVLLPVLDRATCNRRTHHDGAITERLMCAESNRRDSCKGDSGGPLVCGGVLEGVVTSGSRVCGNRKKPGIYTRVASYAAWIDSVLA

As to `CC(=O)c1nn(CC(=O)N2[C@H](C(=O)NC(C)(C)c3cccc(Cl)c3F)C[C@@]3(C)C[C@@H]23)c2c(C)cc(-c3cnc(C)nc3)cc12` [Compound 502, (1R,3S,5R)-2-(2-(3-acetyl-7-methyl-5-(2-methylpyrimidin-5-yl)-1H-indazol-1-yl)acetyl)-N-(2-(3-chloro-2-fluorophenyl)propan-2-yl)-5-methyl-2-azabicyclo[3.1.0]hexane-3-carboxamide], the pIC50 under setting [1] was above 6.00.
Take `CC(=O)c1nn(CC(=O)N2[C@H](C(=O)Nc3cc(C(N)=O)cc(Br)n3)C[C@@]3(C)C[C@@H]23)c2ccc(-c3cnc(C)nc3)cc12` [Compound 503, (1R,3S,5R)-2-(2-(3-acetyl-5-(2-methylpyrimidin-5-yl)-1H-indazol-1-yl)acetyl)-N-(6-bromo-4-carbamoylpyridin-2-yl)-5-methyl-2-azabicyclo[3.1.0]hexane-3-carboxamide]: the pIC50 under setting [1] is above 6.00.
`CC(=O)c1nn(CC(=O)N2[C@H](C(=O)Nc3cc(OCc4ccccc4)cc(Br)n3)C[C@@]3(C)C[C@@H]23)c2ccc(-c3cnc(C)nc3)cc12` [Compound 504, (1R,3S,5R)-2-(2-(3-acetyl-5-(2-methylpyrimidin-5-yl)-1H-indazol-1-yl)acetyl)-N-(4-(benzyloxy)-6-bromopyridin-2-yl)-5-methyl-2-azabicyclo[3.1.0]hexane-3-carboxamide]: the pIC50 under setting [1] is above 6.00.
As for `CC(=O)c1nn(CC(=O)N2[C@H](C(=O)NC(Cc3ccccc3)Cc3ccccc3)C[C@@]3(C)C[C@@H]23)c2c(C)cc(-c3cnc(C)nc3)cc12` [Compound 505, (1R,3S,5R)-2-(2-(3-Acetyl-7-methyl-5-(2-methylpyrimidin-5-yl)-1H-indazol-1-yl)acetyl)-N-(1,3-diphenylpropan-2-yl)-5-methyl-2-azabicyclo[3.1.0]hexane-3-carboxamide], the pIC50 is 5.00 to 6.00.
On to `CNC(=O)[C@@H]1C[C@@]2(C)C[C@H]2N1C(=O)Cn1nc(C(C)=O)c2cc(-c3cnc(C)nc3)cc(C)c21` [Compound 513, (1R,3S,5R)-2-(2-(3-acetyl-7-methyl-5-(2-methylpyrimidin-5-yl)-1H-indazol-1-yl)acetyl)-N,5-dimethyl-2-azabicyclo[3.1.0]hexane-3-carboxamide], for which, under setting [1], the pIC50 was above 6.00.
With `CC(=O)c1nn(CC(=O)N2[C@H](C(=O)Nc3cc(CC(=O)O)cc(Br)n3)C[C@@]3(C)C[C@@H]23)c2ccc(-c3cnc(C)nc3)cc12` [Compound 514, 2-(2-((1R,3S,5R)-2-(2-(3-acetyl-5-(2-methylpyrimidin-5-yl)-1H-indazol-1-yl)acetyl)-5-methyl-2-azabicyclo[3.1.0]hexane-3-carboxamido)-6-bromopyridin-4-yl)acetic Acid], the pIC50 under setting [1] is above 6.00.
For the compound `Cc1ncc(-c2cc(C#N)c3c(c2)c(C(N)=O)nn3CC(=O)N2[C@H](C(=O)Nc3nc(Br)ccc3C)C[C@@]3(C)C[C@@H]23)cn1` [Compound 515], the pIC50 under setting [2] was above 6.00.
For the compound `CCCc1cc(Br)nc(NC(=O)[C@@H]2C[C@@]3(C)C[C@H]3N2C(=O)Cn2nc(C(C)=O)c3cc(-c4cnc(C)nc4)ccc32)c1` [Compound 516, (1R,3S,5R)-2-(2-(3-Acetyl-5-(2-methylpyrimidin-5-yl)-1H-indazol-1-yl)acetyl)-N-(6-bromo-4-propylpyridin-2-yl)-5-methyl-2-azabicyclo[3.1.0]hexane-3-carboxamide], the pIC50 under setting [1] was 5.00 to 6.00.
The same measure, in the same setting: the same measure for `CC(=O)c1nn(CC(=O)N2[C@H](C(=O)NC(CC(C)C)CC(C)C)C[C@@]3(C)C[C@@H]23)c2c(C)cc(-c3cnc(C)nc3)cc12` [Compound 517, (1R,3S,5R)-2-(2-(3-acetyl-7-methyl-5-(2-methylpyrimidin-5-yl)-1H-indazol-1-yl)acetyl)-N-(2,6-dimethylheptan-4-yl)-5-methyl-2-azabicyclo[3.1.0]hexane-3-carboxamide]: above 6.00; for `CNCCCNC(=O)[C@@H]1C[C@@]2(C)C[C@H]2N1C(=O)Cn1nc(C(C)=O)c2cc(-c3cnc(C)nc3)ccc21` [Compound 519, (1R,3S,5R)-2-(2-(3-acetyl-5-(2-methylpyrimidin-5-yl)-1H-indazol-1-yl)acetyl)-5-methyl-N-(3-(methylamino)propyl)-2-azabicyclo[3.1.0]hexane-3-carboxamide]: 5.00 to 6.00; for `CC(=O)c1nn(CC(=O)N2[C@H](C(=O)NCCCN(C)C)C[C@@]3(C)C[C@@H]23)c2ccc(-c3cnc(C)nc3)cc12` [Compound 520, (1R,3S,5R)-2-(2-(3-acetyl-5-(2-methylpyrimidin-5-yl)-1H-indazol-1-yl)acetyl)-N-(3-(dimethylamino)propyl)-5-methyl-2-azabicyclo[3.1.0]hexane-3-carboxamide]: 5.00 to 6.00.
Same read-out and setting: the same measure for `CC(=O)c1nn(CC(=O)N2[C@H](C(=O)Nc3nc(Br)ccc3C)C[C@@]3(C)C[C@@H]23)c2c(CO)cc(-c3cnc(C)nc3)cc12` [Compound 526, (1R,3S,5R)-2-(2-(3-Acetyl-7-(hydroxymethyl)-5-(2-methylpyrimidin-5-yl)-1H-indazol-1-yl)acetyl)-N-(6-bromo-3-methylpyridin-2-yl)-5-methyl-2-azabicyclo[3.1.0]hexane-3-carboxamide]: above 6.00.
Take `CCCCCCCNC(=O)[C@@H]1C[C@@]2(C)C[C@H]2N1C(=O)Cn1nc(C(C)=O)c2cc(-c3cnc(C)nc3)cc(C)c21` [Compound 527, (1R,3S,5R)-2-(2-(3-acetyl-7-methyl-5-(2-methylpyrimidin-5-yl)-1H-indazol-1-yl)acetyl)-N-heptyl-5-methyl-2-azabicyclo[3.1.0]hexane-3-carboxamide]: the pIC50 under setting [2] is above 6.00.
On the same count and under the same terms, the same measure for `CCCCCCCCNC(=O)[C@@H]1C[C@@]2(C)C[C@H]2N1C(=O)Cn1nc(C(C)=O)c2cc(-c3cnc(C)nc3)cc(C)c21` [Compound 528, (1R,3S,5R)-2-(2-(3-acetyl-7-methyl-5-(2-methylpyrimidin-5-yl)-1H-indazol-1-yl)acetyl)-5-methyl-N-octyl-2-azabicyclo[3.1.0]hexane-3-carboxamide]: 5.00 to 6.00.
Regarding `CC(=O)OCc1cc(-c2cnc(C)nc2)cc2c(C(C)=O)nn(CC(=O)N3[C@H](C(=O)Nc4nc(Br)ccc4C)C[C@@]4(C)C[C@@H]34)c12` [Compound 529, (3-Acetyl-1-(2-((1R,3S,5R)-3-((6-bromo-3-methylpyridin-2-yl)carbamoyl-5-methyl-2-azabicyclo[3.1.0]hexan-2-yl)-2-oxoethyl)-5-(2-methylpyrimidin-5-yl)-1H-indazol-7-yl)methyl acetate], under setting [1], the pIC50 was above 6.00.
Take `CCCCCCCCCNC(=O)[C@@H]1C[C@@]2(C)C[C@H]2N1C(=O)Cn1nc(C(C)=O)c2cc(-c3cnc(C)nc3)cc(C)c21` [Compound 530, (1R,3S,5R)-2-(2-(3-acetyl-7-methyl-5-(2-methylpyrimidin-5-yl)-1H-indazol-1-yl)acetyl)-5-methyl-N-nonyl-2-azabicyclo[3.1.0]hexane-3-carboxamide]: the pIC50 under setting [2] is 5.00 to 6.00.
On to `CCCCCCCCCCNC(=O)[C@@H]1C[C@@]2(C)C[C@H]2N1C(=O)Cn1nc(C(C)=O)c2cc(-c3cnc(C)nc3)cc(C)c21` [Compound 531, (1R,3S,5R)-2-(2-(3-acetyl-7-methyl-5-(2-methylpyrimidin-5-yl)-1H-indazol-1-yl)acetyl)-N-decyl-5-methyl-2-azabicyclo[3.1.0]hexane-3-carboxamide], for which the pIC50 under setting [2] is below 5.00.
